Test results: patent publication US20250032499A1, “METHODS OF TREATING PERIPHERAL T-CELL LYMPHOMA” (Secura Bio, Inc., priority 2021, published 2025)

How the values were obtained:
[1] = test system: patients with relapsed or refractory peripheral T-cell lymphoma (R/R PTCL); assay: Phase 2 open-label parallel cohort trial of duvelisib in R/R PTCL, dose-optimization phase (25 mg BID vs 75 mg BID); format: in vivo, human; conditions: for overall response rate (ORR): 28-day cycles, oral
Description: Prior to the present disclosure, Applicant ran a clinical trial using duvelisib to treat PTCL. The trial included two cohorts. In cohort 1, subjects were orally administered duvelisib at a starting dose of 25 mg twice daily (BID), with potential escalation on a per-patient basis to 50 mg BID and then 75 mg BID, based on the patient's response to and tolerance of therapy. Doses were administered in 28-day cycles. In cohort 2, subjects were orally administered 75 mg duvelisib BID, in 28-day cycles. The overall response rate (ORR) in the 75 mg BID cohort was 54% ORR.
A phase 2, open-label, multi-center, parallel cohort trial of duvelisib in R/R PTCL was carried out. Patients were treated with duvelisib for two 28-day cycles with either 25 mg BID (DUV25) or 75 mg BID (DUV75). Patients with pathologically confirmed R/R PTCL (WHO criteria) after ≥2 cycles of ≥1 prior standard regimen, and a CD4 lymphocyte count of ≥50/mm^3 were eligible for enrollment in the study.

[2] = test system: patients with relapsed or refractory peripheral T-cell lymphoma (R/R PTCL); assay: Expansion phase (PRIMO-EP) of the trial in R/R PTCL: duvelisib 75 mg BID for 2 cycles, then 25 mg BID; format: in vivo, human; conditions: for AESI Cutaneous reactions, % / AESI Diarrhea, % / AESI Infections, % / AESI Neutropenia/neutrophil count decreased, % / AESI Pneumonia, % / AESI Pneumonitis, % / AESI Transaminase elevation, % / AESI Colitis, %: all grades
Description: An expansion phase of the above trial described in Example 1 was carried out. Based on the dose optimization results, patients in the expansion phase received duvelisib at 75 mg BID for 2 cycles to maximize rapid tumor control, followed by 25 mg BID to maintain long-term disease control and mitigate late toxicities, until progressive disease (PD) or unacceptable toxicity. The primary endpoint was the overall response rates (ORR) as assessed by the Independent Review Committee (IRC), and secondary endpoints included ORR by INV assessment, duration of response (DOR), progression free survival (PFS), overall survival (OS), disease control rate (DCR), and safety. […] Analysis was performed on data collected from a total of 101 patients with a median follow-up of 8.7 months from time of first response. All patients had pathologically confirmed PTCL (WHO criteria) with a CD4 lymphocyte count of ≥50/mm^3 and received ≥2 cycles of ≥1 prior standard regimen. Prior treatments received included CHOP/R-CHOP, CHOEP/EPOCH, or BV/BV-chemo (all 36.60% r), salvage chemo after CHOP/R-CHOP or CHOEP/EPOCH (37.60), and SCT (21.80). The mean treatment duration was 17.1 weeks, and the median (range) treatment duration was 9.0 (1-79) weeks. Exposure by treatment duration included 43.6% (≤2 cycles), 23.8% (>2-4 cycles), and […] (>4 cycles). The ORR by IRC was […]. In patients with ≥3 prior lines, the ORR was maintained (49.10%).

[3] = Prior Salvage Chemotherapy CHOP/R-CHOP or CHOEP/EPOCH
[4] = all causality, 1 prior regimen (N = 26)
[5] = all causality, 2 prior regimens (N = 22)
[6] = all causality, 3+ prior regimens (N = 53)
[7] = all causality, Tx Duration >2-4 cycles (N = 56)
[8] = all causality, Tx Duration >4 cycles (N = 31)
[9] = all causality, Tx Duration ≤2 cycles (N = 101)

C[C@H](Nc1ncnc2[nH]cnc12)c1cc2cccc(Cl)c2c(=O)n1-c1ccccc1 [duvelisib, (S)-3-(1-((9H-purin-6-yl)amino)ethyl)-8-chloro-2-phenylisoquinolin-1(2H)-one]
overall response rate (ORR) ([1]; 25 mg BID cohort (N=20)): 35%
patients with disease progression, 25 mg BID cohort compared to 75 mg BID ([1]; 25 mg BID cohort vs 75 mg BID cohort): three times as many patients experienced disease progression
overall response rate (ORR) ([1]; 75 mg BID cohort (N=13)): 54%
Discontinuations due to AEs ([1]; DUV25, 25 mg BID): 30%
TEAEs leading to discontinuation ([1]; DUV25, 25 mg BID): disease progression, pneumonitis (2 patients each), cardiac arrest, hypercalcemia, hyperglycemia, pneumonia, rash maculopapular, and respiratory failure (1 each)
fatal AEs (number) ([1]; DUV25, 25 mg BID): 5
Serious TEAEs occurred in ([1]; DUV25, 25 mg BID (n=15/20)): 75%
Discontinuations due to AEs ([1]; DUV75, 75 mg BID): 8%
TEAEs leading to discontinuation ([1]; DUV75, 75 mg BID): disease progression, infectious colitis, and sepsis (1 each)
fatal AEs (number) ([1]; DUV75, 75 mg BID (disease progression)): 1
Serious TEAEs occurred in ([1]; DUV75, 75 mg BID (n=9/13)): 69%
manageability of most TEAEs ([1]; both cohorts): manageable with dose reductions and dose holds
Serious TEAEs in ≥2 patients ([1]; both cohorts (N=33)): colitis, diarrhea, abdominal pain, pyrexia, PD, sepsis, pneumonia, hyponatremia, rash maculopapular, dyspnea, and respiratory failure
Response (CR + PR) by number of prior regimens ([2]; 1 prior regimen (n = 26)): 34.6%
Response (CR + PR) by number of prior regimens ([2]; 2 prior regimens (n = 22)): 63.6%
Response (CR + PR) by number of prior regimens ([2]; 3+ prior regimens (n = 53)): 49.1%
TEAEs leading to dose hold ([2]; % of patients): 37.6%
TEAEs leading to dose reduction ([2]; % of patients): 3.0%
diarrhea ([2]; AE, all causality, maximum GR3): 7.9%
increased alanine aminotransferase (ALT) ([2]; AE, all causality, maximum GR3): 14.9%
increased aspartate aminotransferase (AST) ([2]; AE, all causality, maximum GR3): 13.4%
neutropenia ([2]; AE, all causality, maximum GR3): 13.8%
rash maculo-papular ([2]; AE, all causality, maximum GR3): 7.9%
increased ALT ([2]; AE, all causality, maximum GR4): 5.9%
Median (range) PFS ([2]; N = 101): 3.62 (0.03+-17.2+) months
deaths in TEAEs other than PD (total) ([2]; N = 101): 8
BOR by prior therapy: CR ([2]; Prior BV or BV-chemo): 32.4 % of subgroup
BOR by prior therapy: PR ([2]; Prior BV or BV-chemo): 10.8 % of subgroup
BOR by prior therapy: SD ([2]; Prior BV or BV-chemo): 0 % of subgroup
BOR by prior therapy: CR ([2]; Prior CHOEP/EPOCH): 27.0 % of subgroup
BOR by prior therapy: PR ([2]; Prior CHOEP/EPOCH): 27.0 % of subgroup
BOR by prior therapy: SD ([2]; Prior CHOEP/EPOCH): 0 % of subgroup
BOR by prior therapy: CR ([2]; Prior CHOP/R-CHOP): 37.8 % of subgroup
BOR by prior therapy: PR ([2]; Prior CHOP/R-CHOP): 5.4 % of subgroup
BOR by prior therapy: SD ([2]; Prior CHOP/R-CHOP): 2.7 % of subgroup
BOR by prior therapy: CR ([2]; Prior SCT): 22.7 % of subgroup
BOR by prior therapy: PR ([2]; Prior SCT): 27.3 % of subgroup
BOR by prior therapy: SD ([2]; Prior SCT): 0 % of subgroup
BOR by prior therapy: CR [2, 3]: 44.7 % of subgroup
BOR by prior therapy: PR [2, 3]: 7.9 % of subgroup
BOR by prior therapy: SD [2, 3]: 0 % of subgroup
AESI Cutaneous reactions, % [2, 4]: (38.5) %
AESI Diarrhea, % [2, 4]: (15.4) %
AESI Infections, % [2, 4]: (30.8) %
AESI Neutropenia/neutrophil count decreased, % [2, 4]: (38.5) %
AESI Pneumonia, % [2, 4]: (3.8) %
AESI Pneumonitis, % [2, 4]: (3.8) %
AESI Transaminase elevation, % [2, 4]: (65.4) %
AESI Cutaneous reactions, % [2, 5]: (54.5) %
AESI Diarrhea, % [2, 5]: (27.3) %
AESI Infections, % [2, 5]: (31.8) %
AESI Neutropenia/neutrophil count decreased, % [2, 5]: (27.3) %
AESI Transaminase elevation, % [2, 5]: (40.9) %
AESI Colitis, % [2, 6]: (1.9) %
AESI Cutaneous reactions, % [2, 6]: (24.5) %
AESI Diarrhea, % [2, 6]: (39.6) %
AESI Infections, % [2, 6]: (49.1) %
AESI Neutropenia/neutrophil count decreased, % [2, 6]: (32.1) %
AESI Pneumonia, % [2, 6]: (3.8) %
AESI Pneumonitis, % [2, 6]: (1.9) %
AESI Transaminase elevation, % [2, 6]: (34.0) %
AESI Cutaneous reactions, % [2, 7]: (28.6) %
AESI Diarrhea, % [2, 7]: (14.3) %
AESI Infections, % [2, 7]: (16.1) %
AESI Neutropenia/neutrophil count decreased, % [2, 7]: (14.3) %
AESI Pneumonitis, % [2, 7]: (1.8) %
AESI Transaminase elevation, % [2, 7]: (30.4) %
AESI Colitis, % [2, 8]: (3.2) %
AESI Cutaneous reactions, % [2, 8]: (22.6) %
AESI Diarrhea, % [2, 8]: (22.6) %
AESI Infections, % [2, 8]: (32.3) %
AESI Neutropenia/neutrophil count decreased, % [2, 8]: (25.8) %
AESI Pneumonia, % [2, 8]: (3.2) %
AESI Cutaneous reactions, % [2, 9]: (19.8) %
AESI Diarrhea, % [2, 9]: (19.8) %
AESI Infections, % [2, 9]: (26.7) %
AESI Neutropenia/neutrophil count decreased, % [2, 9]: (28.7) %
AESI Pneumonia, % [2, 9]: (2.0) %
AESI Pneumonitis, % [2, 9]: (1.0) %
response rates regardless of number of prior regimens ([2]; all prior-regimen subgroups): ≥ 35%
Median duration of response ([2]; all responders): 7.7 months
increase of rate of cutaneous reactions ([2]; from Cycle ≤2 to Cycle >4): 2.8%
increase of rate of diarrhea ([2]; from Cycle ≤2 to Cycle >4): 2.8%
increase of rate of infections ([2]; from Cycle ≤2 to Cycle >4): 5.6%
tolerability ([2]; interim results of the expansion phase): well tolerated
Incidence of pneumonia, pneumonitis, and colitis ([2]; regardless of treatment duration, Cycle ≤2 to Cycle >4): 0-3.2%
Median duration of response ([2]; those in CR): 7.4 months
